Test results taken from patent US20050070558A1, “6-Phenyldihydropyrrolopyrimidinedione derivatives” (priority 2001, published 2005).

Molecular target: T1, hA2b receptors (Homo sapiens, UniProt P29275)
T1 construct: purchased Receptor Biology, Inc. (USA); host or cells: HEK293
T1 sequence (P29275 1-332): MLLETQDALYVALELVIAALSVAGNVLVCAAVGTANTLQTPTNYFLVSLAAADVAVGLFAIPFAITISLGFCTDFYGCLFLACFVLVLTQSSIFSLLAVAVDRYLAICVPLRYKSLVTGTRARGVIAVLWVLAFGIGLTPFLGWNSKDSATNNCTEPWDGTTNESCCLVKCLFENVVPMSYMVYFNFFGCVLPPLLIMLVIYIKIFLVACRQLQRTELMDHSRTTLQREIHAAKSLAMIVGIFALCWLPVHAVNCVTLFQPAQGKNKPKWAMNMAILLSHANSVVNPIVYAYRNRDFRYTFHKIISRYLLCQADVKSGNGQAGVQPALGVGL
Assay: Adenosine 2b receptor subtype competition radioligand binding ([3H]DPCPX)
Conditions: membranes from hA2b receptors transfected to HEK293 cells, 30 min at 25° C., read-out: IC50 A2b
Procedure: Adenosine 2b Receptor Subtype Competition Radioligand Binding
Human membranes from recombinant A2b receptors were purchased from Receptor Biology, Inc. (USA).
Competition assays were carried out by incubation of membranes from hA2b receptors transfected to HEK293 cells, [^3H]DPCPX as radioligand, buffer (50 mM Tris-HCl (pH 6.5), 10 mM MgCl2, 1 mM EDTA, 0.1 mM benzamidine, 2 units/ml adenosine deaminase), and unlabelled ligand in a total volume of 0.1 ml for 30 min at 25° C. NECA was used to determinate non-specific binding. Filter over Schleicher&Schuell GF/52 filters (pre-soaked 0.5% polyethylenyimine) in a Brandel cell harvester. Unbound radioligand was removed with 4×2 ml ice-cold 50 mM Tris-Hcl 50 mM (pH 6.5).

| IC50 [nM] | SMILES |
| --- | --- |
| 7 | CCCn1c(=O)c2[nH]c(-c3ccc(OCC(=O)N4CCN(c5ccccc5)CC4)cc3)cc2n(CCC)c1=O [Example 2, 6-{4-[2-Oxo-2-(4-phenylpiperazin-1-yl)ethoxy]phenyl}-1,3-dipropyl-1,5-dihydropyrrolo[3,2-d]pyrimidine-2,4-dione] |
| 5 | CCCn1c(=O)c2[nH]c(-c3ccc(OCC(=O)Nc4ccc(F)cc4)cc3)cc2n(CCC)c1=O [Example 3, 2-[4-(2,4-Dioxo-1,3-dipropyl-2,3,4,5-tetrahydro-1H-pyrrolo[3,2-d]pyrimidin-6-yl)phenoxy]-N-(4-fluorophenyl)acetamide] |
| 3 | CCCn1c(=O)c2[nH]c(-c3ccc(OCC(=O)N4CCc5ccccc5C4)cc3)cc2n(CCC)c1=O [Example 4] |
| 24 | Cn1c(=O)c2[nH]c(-c3ccc(OCC(=O)Nc4nncs4)cc3)cc2n(C)c1=O [Example 67, 2-[4-(1,3-Dimethyl-2,4-dioxo-2,3,4,5-tetrahydro-1H-pyrrolo[3,2-d]pyrimidin-6-yl)phenoxy]-N-[1,3,4]thiadiazol-2-ylacetamide] |
| 8 | Cn1c(=O)c2[nH]c(-c3ccc(OCC(=O)N4CCN(c5ccccc5)CC4)cc3)cc2n(C)c1=O [Example 68, 1,3-Dimethyl-6-{4-[2-oxo-2-(4-phenylpiperazin-1-yl)ethoxy]phenyl}-1,5-dihydropyrrolo[3,2-d]pyrimidine-2,4-dione] |
| 10 | CCCn1c(=O)c2[nH]c(-c3ccc(OCC(=O)N4CCC(c5ccccc5)(c5ccccc5)CC4)cc3)cc2n(C)c1=O [Example 100, 6-{4-[2-(4,4-Diphenylpiperidin-1-yl)-2-oxo-ethoxy]phenyl}-1-methyl-3-propyl-1,5-dihydropyrrolo[3,2-d]pyrimidine-2,4 dione] |
| 17 | CCCn1c(=O)c2[nH]c(-c3ccc(OCc4nc(-c5ccccc5)no4)cc3)cc2n(CCC)c1=O [Example 210, 6-[4-(3-Phenyl[1,2,4]oxadiazol-5-ylmethoxy)phenyl]-1,3-dipropyl-1,5-dihydropyrrolo[3,2-d]pyrimidine-2,4-dione] |

Molecular target: T2, hA2a receptors (Homo sapiens, UniProt P29274)
T2 construct: purchased Receptor Biology, Inc. (USA); host or cells: HEK293
T2 sequence (P29274 whole entry): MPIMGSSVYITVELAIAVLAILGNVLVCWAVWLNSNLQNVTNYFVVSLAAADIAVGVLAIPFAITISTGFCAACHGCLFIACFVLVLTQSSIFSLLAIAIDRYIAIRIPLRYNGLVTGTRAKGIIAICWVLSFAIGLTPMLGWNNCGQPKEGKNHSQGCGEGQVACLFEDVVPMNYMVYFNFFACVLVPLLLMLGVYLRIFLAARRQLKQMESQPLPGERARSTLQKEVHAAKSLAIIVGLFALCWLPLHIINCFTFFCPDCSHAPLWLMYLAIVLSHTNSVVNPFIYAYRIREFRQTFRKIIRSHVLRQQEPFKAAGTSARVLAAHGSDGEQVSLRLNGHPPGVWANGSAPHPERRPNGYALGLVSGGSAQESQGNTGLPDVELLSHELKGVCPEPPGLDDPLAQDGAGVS
Assay: Adenosine 2a receptor subtype competition radioligand binding ([3H]ZM241385)
Conditions: membranes from hA2a receptors transfected to HEK293 cells, [3H]ZM241385, 90 min at 25° C.; read-out: IC50 A2a
Procedure: Adenosine 2a Receptor Subtype Competition Radioligand Binding
Human membranes from recombinant A2a receptors were purchased from Receptor Biology, Inc. (USA).
Competition assays were carried out by incubation of membranes from hA2a receptors transfected to HEK293 cells, [^3H]ZM241385 as radioligand, buffer (50 mM Tris-HCl (pH 7.4), 10 mM MgCl2, 1 mM EDTA, 2 units/ml adenosine deaminase), and unlabelled ligand in a total volume of 0.2 ml for 90 min at 25° C. NECA was used to determinate non-specific binding. Filter over Schleicher&Schuell GF/52 filters (pre-soaked 0.5% polyethylenyimine) in a Brandel cell harvester. Unbound radioligand was removed with 3×3 ml ice-cold 50 mM Tris-Hcl 50 mM (pH 7.4), 0.9% NaCl.

| IC50 [nM] | SMILES |
| --- | --- |
| 22 | CCCn1c(=O)c2[nH]c(-c3ccc(OCC(=O)Nc4ccc(F)cc4)cc3)cc2n(CCC)c1=O [Example 3, 2-[4-(2,4-Dioxo-1,3-dipropyl-2,3,4,5-tetrahydro-1H-pyrrolo[3,2-d]pyrimidin-6-yl)phenoxy]-N-(4-fluorophenyl)acetamide] |
| 26 | Cn1c(=O)c2[nH]c(-c3ccc(OCC(=O)Nc4nncs4)cc3)cc2n(C)c1=O [Example 67, 2-[4-(1,3-Dimethyl-2,4-dioxo-2,3,4,5-tetrahydro-1H-pyrrolo[3,2-d]pyrimidin-6-yl)phenoxy]-N-[1,3,4]thiadiazol-2-ylacetamide] |
| 38 | CCCn1c(=O)c2[nH]c(-c3ccc(OCC(=O)Nc4ccc(F)cc4)cc3)c(Br)c2n(CCC)c1=O [Example 138, 2-[4-(7-Bromo-2,4-dioxo-1,3-dipropyl-2,3,4,5-tetrahydro-1H-pyrrolo[3,2-d]pyrimidin-6-yl)phenoxy]-N-(4-fluorophenyl)acetamide] |
| 84 | COc1cc(-c2cc3c([nH]2)c(=O)n(C)c(=O)n3C)ccc1OCC(=O)Nc1ccc(F)cc1 [Example 160, 2-[4-(1,3-Dimethyl-2,4-dioxo-2,3,4,5-tetrahydro-1H-pyrrolo[3,2-d]pyrimidin-6-yl)-2-methoxyphenoxy]-N-(4-fluorophenyl)acetamide] |

Test system: not given
Assay: not given
Conditions: not given

| melting point | SMILES |
| --- | --- |
| > 275 °C (dec.) | Cn1c(=O)c2[nH]c(-c3ccc(OCC(=O)N4CCN(c5cccc(C(F)(F)F)c5)CC4)cc3)cc2n(C)c1=O [Example 74, 1,3-Dimethyl-6-(4-{2-oxo-2-[4-(3-trifluoromethylphenyl)piperazin-1-yl]ethoxy}phenyl)-1,5-dihydropyrrolo[3,2-d]pyrimidine-2,4-dione] |
| 182 to 185 °C | CCCn1c(=O)c2[nH]c(-c3ccc(COC(=O)Nc4cc(OC)nc(OC)n4)cc3)cc2n(CCC)c1=O [Example 259, (2,6-Dimethoxy-pyrimidin-4-yl)-carbamic Acid 4-(2,4-dioxo-1,3-dipropyl-2,3,4,5-tetrahydro-1H-pyrrolo[3,2-d]pyrimidin-6-yl)benzyl Ester] |
| 301 °C | Cn1c(=O)c2[nH]c(-c3ccc(COC(=O)Nc4ccccn4)cc3)cc2n(C)c1=O [Example 268, Pyridin-2-yl-carbamic acid 4-(1,3-dimethyl-2,4-dioxo-2,3,4,5-tetrahydro-1H-pyrrolo[3,2-d]pyrimidin-6-yl)benzyl ester] |
| 293 °C | Cc1ccc(NC(=O)OCc2ccc(-c3cc4c([nH]3)c(=O)n(C)c(=O)n4C)cc2)nc1 [Example 269, (5-Methylpyridin-2-yl)-carbamic acid 4-(1,3-dimethyl-2,4-dioxo-2,3,4,5-tetrahydro-1H-pyrrolo[3,2-d]pyrimidin-6-yl)benzyl ester] |
| 287 °C | Cn1c(=O)c2[nH]c(-c3ccc(COC(=O)Nc4cccs4)cc3)cc2n(C)c1=O [Example 270, Thiophen-2-yl-carbamic acid 4-(1,3-dimethyl-2,4-dioxo-2,3,4,5-tetrahydro-1H-pyrrolo[3,2-d]pyrimidin-6-yl)-benzyl ester] |
| 280 °C | Cn1c(=O)c2[nH]c(-c3ccc(COC(=O)Nc4ccsc4)cc3)cc2n(C)c1=O [Example 271, Thiophen-3-yl-carbamic acid 4-(1,3-dimethyl-2,4-dioxo-2,3,4,5-tetrahydro-1H-pyrrolo[3,2-d]pyrimidin-6-yl)-benzyl ester] |
| 278 °C | Cn1c(=O)c2[nH]c(-c3ccc(COC(=O)Nc4ccco4)cc3)cc2n(C)c1=O [Example 272, Furan-2-yl-carbamic acid 4-(1,3-dimethyl-2,4-dioxo-2,3,4,5-tetrahydro 1H-pyrrolo[3,2-d]pyrimidin-6-yl)-benzyl ester] |
